Marks after values point to notes of the source that are not given here. No end group written: not given here.
Test system: LPS-induced endotoxic shock
Test: LPS-induced endotoxic shock in mice (death rate after LPS injection)
Assay type: in vivo, Balb/c mice
Method: The pharmacological activity of UK 114 and of the peptides of the invention has been studied on the murine model of LPS-induced shock, as reported in the following Example.
Balb/c mice 6-8 weeks old were treated i.p. with 30 mcg of UK114 in 100 μl PBS (group B) or with 4 mcg of peptide 76-90 (group C) 24 hours and one hour before the administration of 500 mcg of LPS. A control group of mice (group A) was tretated with 100 μl PBS according to the same protocol used for groups C and B.
A further group was treated only with UK114 one hour after the administration of LPS (group D). This experimental approach more closely resembles the clinical practice where it is difficult to intervene prophylactically.
The death rate of the animals in each group was recorded every 12 hours up to the third day from the LPS injection.

VVKATVLLADINDFS [pep. 76-90]
Death-rate (at 72 h) (prophylactic i.p. treatment 24 hours and one hour before 500 mcg LPS, UK114 30 mcg, peptide 76-90 4 mcg, 50 mice per group, PBS control 40/50 (80%)): 25/50(50%)***
Protection from the lethal effects of LPS (prophylactic treatment, 72 hours post LPS, vs PBS control group): clearly protected from the lethal effects of LPS

— patent US20040180835A1, “Use of the protein uk114 or of fragments thereof for the treatment and prevention of the endotoxic shock” (priority 2001, published 2004)
